Assay results taken from ChEMBL document CHEMBL1150035, “Potent, non-peptidic oxytocin receptor antagonists from a natural source” (Bioorg Med Chem Lett, 1993).

Legend:
Oxytocin receptor = target: T1, Oxytocin receptor (Rattus norvegicus, UniProt P70536); experiment: Compound was tested for its ability to inhibit binding of Oxytocin to its Oxytocin receptor in rat uterine tissue
T1 sequence (P70536 whole entry): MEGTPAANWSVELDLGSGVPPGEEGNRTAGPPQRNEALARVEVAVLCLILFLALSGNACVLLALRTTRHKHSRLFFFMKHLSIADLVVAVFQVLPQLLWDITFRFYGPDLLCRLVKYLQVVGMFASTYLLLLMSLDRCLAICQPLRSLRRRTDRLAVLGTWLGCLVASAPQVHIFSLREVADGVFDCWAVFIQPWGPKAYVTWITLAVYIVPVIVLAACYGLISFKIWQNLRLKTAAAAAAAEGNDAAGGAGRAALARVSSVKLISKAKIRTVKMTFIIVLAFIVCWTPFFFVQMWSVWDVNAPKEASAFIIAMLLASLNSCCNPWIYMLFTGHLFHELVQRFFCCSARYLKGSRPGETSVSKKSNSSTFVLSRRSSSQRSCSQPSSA

[1] = Compound was tested for its ability to inhibit binding of arginine vasopressin to Vasopressin receptor (V1 subtype)

Structure (SMILES) | IC50 (Oxytocin receptor) [µM] | IC50 [1] [µM]
COc1c([C@H](CC(C)C)OC(C)=O)ccc2c1C(=O)OCc1cc(C)cc(O)c1O2 | 8.4 | > 100
COc1c([C@H](CC(C)C)OC(C)=O)ccc2c1C(=O)Oc1cc(C)cc(C=O)c1O2 | > 100 | 
COc1c(C(=O)CC(C)C)ccc2c1C(=O)OCc1cc(C)cc(O)c1O2 | > 100 | 
COc1c([C@@H](O)CC(C)C)ccc2c1C(=O)OCc1cc(C)cc(O)c1O2 [PENICILLIDE] | 67 | 
COc1c([C@H](CC(C)C)OC(C)=O)ccc2c1C(=O)OCc1cc(C)cc(OC(C)=O)c1O2 | 5 | 
COc1cc(C)cc2c1Oc1ccc([C@@H](O)CC(C)C)c(OC)c1C(=O)OC2 | > 100 | 
COc1cc(C)cc2c1Oc1ccc([C@H](CC(C)C)OC(C)=O)c(OC)c1C(=O)OC2 | 21 | > 100
